Assay results: US8785463B2, “GPR 119 agonists” (Cadila Healthcare Limited, priority 2010, dated 2014)

Molecular target: T1, human GPR 119 receptor (Homo sapiens, UniProt Q8TDV5)
T1 construct: expressed in transfected cells
T1 sequence (Q8TDV5 1-335): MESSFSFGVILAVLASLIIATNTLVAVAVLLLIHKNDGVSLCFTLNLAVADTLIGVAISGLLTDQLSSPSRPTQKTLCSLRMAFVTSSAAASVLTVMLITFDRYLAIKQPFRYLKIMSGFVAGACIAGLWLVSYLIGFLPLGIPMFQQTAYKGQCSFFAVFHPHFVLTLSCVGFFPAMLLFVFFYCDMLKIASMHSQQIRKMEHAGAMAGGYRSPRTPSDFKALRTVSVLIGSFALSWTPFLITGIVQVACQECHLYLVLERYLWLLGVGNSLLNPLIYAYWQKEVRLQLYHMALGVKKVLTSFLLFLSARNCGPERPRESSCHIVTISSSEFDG
Test: cAMP assay in stable cell line expressing recombinant human GPR 119 receptor
Type: cell-based
Conditions: DMSO = 1
Excerpt: A stable cell line expressing recombinant human GPR 119 receptor was established and used to investigate the efficacy of the compounds of the invention based on the intracellular levels of cyclic AMP (cAMP) using commercially available cAMP kits.

Fold increase in cyclic AMP with respective to DMSO (10 nM compound) | Fold increase in cyclic AMP with respective to DMSO (100 nM compound) | Fold increase in cyclic AMP with respective to DMSO (1 uM compound) | Compound
1.50 fold | 2.57 fold | 4.03 fold | Cc1c(OCC2CCCN2C(=O)OC(C)(C)C)ncnc1Oc1ccc(/C=C2\SC(=O)NC2=O)cc1 (stereo not drawn) [Example 18, (Z)-tert-Butyl 2-(((6-(4-((2,4-dioxothiazolidin-5-ylidene)methyl)phenoxy)-5-methylpyrimidin-4-yl)oxy)methyl)pyrrolidine-1-carboxylate]
0.77 fold | 0.94 fold | 1.45 fold | COC(=O)N1CCC(Oc2ncnc(Oc3cccc(/C=C4\SC(=O)N(C(C)C)C4=O)c3)c2C)CC1 [Example 32, (Z)-Methyl 4-((6-(3-((3-isopropyl-2,4-dioxothiazolidin-5-ylidene)methyl)phenoxy)-5-methylpyrimidin-4-yl)oxy)piperidine-1-carboxylate]
0.95 fold | 1.82 fold | 1.66 fold | Cc1c(Oc2cccc(/C=C3\SC(=O)NC3=O)c2)ncnc1OC1CCN(C(=O)OCC(C)C)CC1 [Example 22, (Z)-iso-Butyl 4-((6-(3-((2,4-dioxothiazolidin-5-ylidene)methyl)phenoxy)-5-methylpyrimidin-4-yl)oxy)piperidine-1-carboxylate]
1.00 fold | 1.38 fold | 2.51 fold | COC(=O)N1CCC(Oc2ncnc(Oc3ccc(/C=C4\SC(=O)NC4=O)cc3)c2C)CC1 [Example 11, (Z)-Methyl 4-((6-(4-((2,4-dioxothiazolidin-5-ylidene)methyl)phenoxy)-5-methylpyrimidin-4-yl)oxy)piperidine-1-carboxylate]
0.92 fold | 1.06 fold | 2.35 fold | COC(=O)N1CCC(Oc2ncnc(Oc3cccc(/C=C4\SC(=O)NC4=O)c3)c2C)CC1 [Example 21, (Z)-Methyl 4-((6-(3-((2,4-dioxothiazolidin-5-ylidene)methyl)phenoxy)-5-methylpyrimidin-4-yl)oxy)piperidine-1-carboxylate]
1.40 fold | 2.40 fold | 6.61 fold | CCOC(=O)N1CCC(Oc2ncnc(Oc3ccc(/C=C4\SC(=O)NC4=O)cc3)c2C)CC1 [Example 14, (Z)-Ethyl 4-((6-(4-((2,4-dioxothiazolidin-5-ylidene)methyl)phenoxy)-5-methylpyrimidin-4-yl)oxy)piperidine-1-carboxylate]
1.15 fold | 1.94 fold | 3.36 fold | CCOC(=O)N1CCC(Oc2cc(Oc3ccc(/C=C4\SC(=O)NC4=O)cc3)ncn2)CC1 [Example 52, (Z)-Ethyl 4-((6-(4-((2,4-dioxothiazolidin-5-ylidene)methyl)phenoxy)pyrimidin-4-yl)oxy)piperidine-1-carboxylate]
0.61 fold | 0.63 fold | 1.42 fold | Cc1c(Oc2ccc(/C=C3\SC(=O)NC3=O)cc2)ncnc1OC1CCN(C(=O)OCc2ccccc2)CC1 [Example 13, (Z)-Benzyl 4-((6-(4-((2,4-dioxothiazolidin-5-ylidene)methyl)phenoxy)-5-methylpyrimidin-4-yl)oxy)piperidine-1-carboxylate]

The next lines start with the compound.

Compound | Fold increase in cyclic AMP with respective to DMSO (10 nM compound) | Fold increase in cyclic AMP with respective to DMSO (100 nM compound) | Fold increase in cyclic AMP with respective to DMSO (1 uM compound)
CC(=O)CN1C(=O)S/C(=C\c2ccc(Oc3cc(OC4CCN(C(=O)OC(C)(C)C)CC4)ncn3)cc2)C1=O [Example 46, (Z)-tert-Butyl 4-((6-(4-((2,4-dioxo-3-(2-oxopropyl)thiazolidin-5-ylidene)methyl)phenoxy)pyrimidin-4-yl)oxy)piperidine-1-carboxylate] | 1.58 fold | 1.89 fold | 5.45 fold
Cc1c(Oc2cccc(/C=C3\SC(=O)NC3=O)c2)ncnc1OC1CCN(c2nc(C(C)C)no2)CC1 [Example 25, (Z)-5-(3-((6-((1-(3-Isopropyl-1,2,4-oxadiazol-5-yl)piperidin-4-yl)oxy)-5-methylpyrimidin-4-yl)oxy)benzylidene)thiazolidine-2,4-dione] | 3.32 fold | 5.81 fold | 1.39 fold
CCOC(=O)N1CCC(Oc2ncnc(Oc3cccc(/C=C4\SC(=O)N(C)C4=O)c3)c2C)CC1 [Example 4, (Z)-Ethyl-4-((5-methyl-6-(3-((3-methyl-2,4-dioxothiazoldin-5-ylidene)methy 1)phenoxy)pyrimidin-4-yl)oxy)piperidine-1-carboxylate] | 4.52 fold | 4.95 fold | 7.17 fold
CC(C)c1noc(N2CCC(Oc3cc(Oc4ccc(/C=C5\SC(=O)NC5=O)cc4)ncn3)CC2)n1 [Example 10, (Z)-5-(4-((6-((1-(3-iso-Propyl-1,2,4-oxadiazol-5-yl)piperidin-4-yl)oxy)pyrimidin-4-yl)oxy)benzylidene)thiazolidine-2,4-dione] | 1.14 fold | 2.30 fold | 5.06 fold
O=C1NC(=O)/C(=C/c2cccc(Oc3cc(OC4CCN(c5ncccn5)CC4)ncn3)c2)S1 [Example 42, (Z)-5-(3-((6-((1-(Pyrimidin-2-yl)piperidin-4-yl)oxy)pyrimidin-4-yl)oxy)benzylidene)thiazolidine-2,4-dione] | 0.65 fold | 1.27 fold | 3.10 fold
CC(C)(C)OC(=O)N1CCC(Oc2cc(Oc3ccc(/C=C4\SC(=O)N(S(C)(=O)=O)C4=O)cc3)ncn2)CC1 [Example 24, (Z)-tert-Butyl 4-((6-(4-((3-(methylsulfonyl)-2,4-dioxothiazolidin-5-ylidene)methyl)phenoxy)pyrimidin-4-yl)oxy)piperidine-1-carboxylate] | 1.07 fold | 1.11 fold | 2.27 fold
CCN1C(=O)S/C(=C\c2ccc(Oc3cc(OC4CCN(C(=O)OC(C)(C)C)CC4)ncn3)cc2)C1=O [Example 31, (Z)-tert-Butyl 4-((6-(4-((3-ethyl-2,4-doxothiazolidin-5-ylidene)methyl)phenoxy)pyrimidin-4-yl)oxy)piperidine-1-carboxylate] | 1.06 fold | 2.27 fold | 3.66 fold
CCc1cnc(N2CCC(Oc3ncnc(Oc4ccc(/C=C5\SC(=O)N(S(C)(=O)=O)C5=O)cc4)c3C)CC2)nc1 [Example 3, (2)-5-(4-((6-((1-(5-Ethylpyrimidin-2-yl)piperidin-4-yl)oxy)-5-methylpyrimidin-4-yl)oxy)benzylidene)-3-(methylsulfonyl)thiazolidine-2,4-dione] | 0.64 fold | 0.88 fold | 2.02 fold
